Measurements: a melting point compilation (Tetko et al.; mined from patent text by program, amines drawn as free bases though some values may be those of a salt)

Compared with `CC(C)Cn1c(N)nc2c(N)nc3ccccc3c21`, `CCCn1nc2c(N)nc3ccccc3c2c1CC(C)(C)NC(=O)CC` is lower in melting point: > 250 °C for the first, 158 to 159 °C for the second.

Compared with `CN1C(=O)S/C(=C\c2cn(-c3ccccc3)nc2OCc2ccccc2)C1=O`, `CN(C)c1ccc(C(=O)C#Cc2cccc(OCc3ccccc3)c2)cc1` is lower in melting point: 226 to 227 °C for the first, 134 to 136 °C for the second.

First: CS(=O)(=O)OCC1CN(c2ccc3ccccc3c2)C(=O)O1 (configuration not stated)
Second: O=C1C(=O)c2c(nc3ccccn23)-c2cc([N+](=O)[O-])ccc21
The melting point of the first is lower: 169 to 172 °C for the first, > 300 °C for the second.

Compared with `CN(C)c1ccc(C(=O)c2cc(C(F)(F)F)cc(C(F)(F)F)c2)cc1`, `O=c1[nH]c2cc(C(F)(F)F)ccc2n1-c1cc(C(F)(F)F)cc([N+](=O)[O-])c1O` is higher in melting point: 129 to 131 °C for the first, > 360 °C for the second.

First: COC(=S)C(C)=CNc1ccc(OC)c(Cl)c1
Second: COc1ccc(C=C(C#N)C#N)cc1OC
The melting point of the first is higher: 110 to 112 °C for the first, 108 °C for the second.

Compared with `COc1nc(OC)c(SC)c(OC)n1`, `COC(=O)c1nc2nc(C(C)C)cc(O)n2n1` is higher in melting point: 90.5 to 91 °C for the first, 198 to 201 °C for the second.

First: COc1cc(C2CCN(C(=O)C3CCN3)CC2)ccc1Nc1ncc2ccc(-c3ccccc3N(C)S(C)(=O)=O)n2n1 (configuration not stated)
Second: COc1cc(N2CCCN(C[C@@H](C)O)CC2)ccc1Nc1ncc2ccc(-c3ccccc3OC)n2n1
The melting point of the first is higher: 111 to 116 °C for the first, 70 to 79 °C for the second.

Compared with `CCC(=O)NCCC1CCc2cc(F)c(OC)cc21` (configuration not stated), `COc1ccc2c(c1)C(CCCNC(C)=O)CCC2` (configuration not stated) is lower in melting point: 76 to 78 °C for the first, 71 to 73 °C for the second.

First: C[C@@H]1C[C@](C)(O)[C@H](C)N1c1ccc(C#N)c(C(F)(F)F)c1
Second: CCS(=O)(=O)Nc1cc(-n2cnc(C(F)(F)F)cc2=O)c(F)cc1C#N
The melting point of the first is lower: 115 to 117 °C for the first, 170 °C for the second.

First: CCCCCCCCCCCCCCCc1cccc(OCC#CC(=O)C(F)(F)F)c1
Second: CCCCCCCCCCCCCCCCSCC(CN)NC(=O)OC (configuration not stated)
The melting point of the first is lower: 35 to 36 °C for the first, 49 to 50.5 °C for the second.

Compared with `CCCN(CCC)S(=O)(=O)c1cccc(C(=O)Nc2ccc(Br)cc2)c1`, `CCOC(=O)CCc1ccc(NC(C)=O)cc1` is lower in melting point: 160 to 162 °C for the first, 52 to 53 °C for the second.

First: O=C(Oc1ccc2cc(CN3CCCC3)ccc2c1)N1CCC(c2ccc(Cl)cc2)CC1
Second: CC(C)(C)OC(=O)N1CCC(c2ccc3oc(-c4ccc(C(F)(F)F)cc4)nc3c2)CC1
The melting point of the first is lower: 121 to 123 °C for the first, 161 to 164 °C for the second.

First: Cc1c([N+](=O)[O-])ccc2c1ccn2C
Second: Cn1ccc2cc(Nc3ccncc3)ccc21
The melting point of the first is lower: 120 to 123 °C for the first, 202 to 203 °C for the second.

First: CCN(CC)c1ccc(F)c2nc(Nc3ccc(Cl)cc3Cl)[nH]c12
Second: CC(C)Oc1ccc(CCCO)c(Oc2ncc(Cl)cc2Cl)c1
The melting point of the first is higher: 204 to 205 °C for the first, 57 to 59 °C for the second.

First: COc1cccc(CNc2n[nH]c3ncnc(Nc4cccc(Cl)c4)c23)c1
Second: Nc1cccnc1NCc1ccc(Cl)cc1
The melting point of the first is higher: 192 to 193 °C for the first, 123 to 125 °C for the second.

First: Cc1ccc(-c2ccc3cc(C(=O)Nc4ccc(CN(C)C5CCOCC5)cc4)[nH]c3c2)cc1
Second: COc1ccc2c(c1OC)CCN(CCc1ccc(NC(=O)c3cccc4c(=O)c5cccc(OC)c5[nH]c34)cc1)C2
The melting point of the first is higher: 246 to 250 °C for the first, 235 to 237 °C for the second.

First: Cc1cn(C2OC(CO)C(O)C2O)c(=O)[nH]c1=O (configuration not stated)
Second: CC(C)CCCc1c(-c2ccc(S(C)(=O)=O)cc2)cnn(-c2ccc(F)cc2)c1=O
The melting point of the first is higher: 244 to 249 °C for the first, 112 to 115 °C for the second.

First: CCOC(=O)c1cc(=O)c(Sc2ccc(OC)cc2)co1
Second: CCOC(=O)c1c2ccc(CC(=O)NOCCO)ccc-2c(C(=O)OCC)c1N
The melting point of the first is lower: 90 to 92 °C for the first, 190 to 192 °C for the second.

First: CCC(C(=O)c1ccc(Cl)cc1)n1ncn(-c2ccc(N3CCNCC3)cc2)c1=O (configuration not stated)
Second: O=C(c1ccc(Nc2ccnc3cc(Cl)ccc23)cc1)N1CCNCC1
The melting point of the first is lower: 176 °C for the first, 248 to 250 °C for the second.

First: COc1c(C(C)(C)C)cc(COc2ccc(C=C3SC(=S)NC3=O)cc2)cc1C(C)(C)C
Second: COc1cc(C=CC(=O)c2ccc(I)cc2O)cc(OC)c1OCc1ccccc1
The melting point of the first is higher: 213 to 218 °C for the first, 124 to 125 °C for the second.

First: O=c1c2ccccc2sc2ccc(SC(F)(F)F)cc12
Second: CCCC(=O)Nc1ccccc1Oc1cc(-c2ccc(C(F)(F)F)cc2)ncn1
The melting point of the first is higher: 126 to 127 °C for the first, 112 °C for the second.

Compared with `COc1ccc2ccccc2c1-c1c(C)c2c(c(C)c1P(c1ccccc1)c1ccccc1)COC2`, `COc1ccc(-c2cnc(N3CCc4c([nH]c5ccccc45)C3C3Cc4ccccc4O3)nc2)cc1` (configuration not stated) is higher in melting point: 159 °C for the first, 242 to 243 °C for the second.

First: O=Cc1ccc(-c2cnn(-c3ccc(OC(F)(F)F)cc3)c2)cc1
Second: CN(CCCOc1ccc(OC(F)(F)F)cc1)C1CCN(c2ccc(OC[C@@]3(C)Cn4cc([N+](=O)[O-])nc4O3)cc2)CC1
The melting point of the first is lower: 107 to 109 °C for the first, 167 to 170 °C for the second.

First: OC1(c2cccc(Cl)c2)CCN(c2nc3ccc(C(F)(F)F)cc3[nH]2)CC1
Second: CN1CCC(OC2c3ccc(Br)cc3CCn3cc(-c4ccccc4)nc32)CC1 (configuration not stated)
The melting point of the first is higher: 247 °C for the first, 92 °C for the second.

First: C=CCc1ccc(-c2nc3c(N[C@H]4[C@@H](C(N)=O)[C@@H]5C=C[C@H]4C5)c(Cl)cnc3[nH]2)c(OC)c1
Second: COc1cc(C)c(C(=O)c2c(Cl)cccc2Cl)c(OC(=O)Cc2ccccc2)c1OC
The melting point of the first is higher: 123 to 126 °C for the first, 106 °C for the second.

Compared with `CC(CCCC(C)(O)CO)C1CCC2C3CC=C4CC(O)CCC4(C)C3CCC12C` (configuration not stated), `O=C(NCCCc1ccncc1)N(CCC12CC3CC(CC(C3)C1)C2)C1CC1` is lower in melting point: 173 to 176 °C for the first, 108 to 116 °C for the second.

Compared with `CC(C)(C)c1nnc(N)n(N)c1=O`, `CC(=O)N1CC(=O)N/C(=C\c2ncoc2C(C)(C)C)C1=O` is lower in melting point: 223 to 224 °C for the first, 145 to 147 °C for the second.

First: CC(C)(C)C(=O)Oc1cc(C(=O)OCC[Si](C)(C)C)cc2oc(-c3ccccc3)cc(=O)c12
Second: CC(C)Cn1nc(-c2ccccc2)cc(C(=O)O)c1=O
The melting point of the first is higher: 205 °C for the first, 120 to 121 °C for the second.

`Cc1cccc(-c2[nH]c(C(C)C)nc2-c2cccc(-c3ccc(N)cc3)c2)n1` and `Brc1cc(-c2ccccc2)cc(-c2ccccc2)c1` cannot be ordered by melting point: 107 to 117 °C for the first, 109 °C for the second.

Compared with `Cc1ccccc1C(=O)Nc1ccc(C(=O)N2CCCC(OCC(=O)N(C)C)c3ccccc32)cc1` (configuration not stated), `O=C(Nc1ccccc1)ONC1=Nc2ccc(Cl)cc2C(c2ccccc2F)=NC1` is lower in melting point: 203 to 204 °C for the first, 126 to 128 °C for the second.

Compared with `Cc1cccc(Cn2c(NC3CCN(CCc4c(C)nc5ccccn5c4=O)CC3)nc3cccnc32)n1`, `O=C1C(=O)N(CCCN2CCN(C(=O)N(c3ccccc3)c3ccccc3)CC2)c2ccccc21` is lower in melting point: 233 °C for the first, 163 to 164 °C for the second.

First: Nc1sc2c(c1C(=O)c1ccc(Cl)cc1)CCN(C(=O)OCc1ccccc1)C2
Second: O=C(NO)c1ccc2c(c1)CCN(C(=O)NCCc1c[nH]c3ccccc13)C2
The melting point of the first is lower: 60 to 62 °C for the first, 173 to 176 °C for the second.

First: CCOC(=O)NC(=NCCCCc1ccccn1)NCCCc1c[nH]cn1
Second: CCOC(=O)CCNC(=O)Oc1c(C)n(C)ccc1=O
The melting point of the first is lower: 92 to 94 °C for the first, 171 to 173 °C for the second.

Compared with `CNC(=O)Cc1ccc(N)c(N)c1`, `CCc1c(C)c2ccc(O)cc2oc1=O` is higher in melting point: 136 to 138 °C for the first, 201 to 203 °C for the second.

First: Clc1cc(Cl)c(Oc2c(Cl)ncnc2Cl)c(Cl)c1
Second: COc1ccc2c(Cl)c(C(=O)Cl)sc2c1Cl
The melting point of the first is lower: 104 to 105 °C for the first, 174 to 175 °C for the second.

First: Nc1nc(N2CCNCC2)c2nc(-c3ccccc3)c(N)nc2n1
Second: CN(C)c1nc(NS(=O)(=O)c2ccc(N)cc2)cc(N2CCC2)n1
The melting point of the first is lower: 150 to 155 °C for the first, 239 to 240 °C for the second.

First: CCCCCCCNC(=O)Nc1ccccc1C(=O)NCCCC1CCN(C(c2ccccc2)c2ccccc2)CC1
Second: c1ccc(C(Cc2nc(COc3ccc(CCCn4ccnc4)cc3)co2)c2ccccc2)cc1
The melting point of the first is higher: 123 to 124 °C for the first, 79 to 80 °C for the second.

First: O=C(OCc1ccccc1)c1ccc2cc(-c3ccc(CC(O)CO)c(C45CC6CC(CC(C6)C4)C5)c3)ccc2c1 (configuration not stated)
Second: CCOC(=O)CCCCCOc1cc2ccc(-c3ccc(C(=O)O)cc3)cc2cc1C12CC3CC(CC(C3)C1)C2
The melting point of the first is lower: 200 °C for the first, 270 to 271 °C for the second.

First: COc1cccc(CC(=O)O)c1OCCCc1cn(-c2ncc(C(F)(F)F)cn2)nc1C(C)C
Second: CCCc1nc(C)c2c(Sc3ccc(NC(C)=O)cc3)nc(-c3ccccc3OCC)nn12
The melting point of the first is lower: 131 to 132 °C for the first, 226 to 228 °C for the second.

Compared with `O=C(O)C1=Cc2cc(Cl)cc(F)c2OC1C(F)(F)F` (configuration not stated), `CC(C)(C)OC(=O)N1CCCC(Nc2cc(-c3ccc(F)c(NC(=O)c4cnc(C(C)(C)C)cn4)c3)n[nH]c2=O)C1` (configuration not stated) is lower in melting point: 191 to 193 °C for the first, 120 to 121 °C for the second.

Compared with `Cc1cccc(C2=NC(C)(C(C)C)C(=S)N2)c1` (configuration not stated), `CC(C)CNC(=S)Nc1cccc(NC(=O)Nc2ccc(Cl)cc2)c1` is higher in melting point: 122 to 123 °C for the first, 195 to 196 °C for the second.

Compared with `c1cc(NC2=NCCN2)ccc1Cc1cc(OC2CCCC2)cs1`, `N#CCc1ccc(C2CCCCC2)cc1` is lower in melting point: 142 to 143 °C for the first, 48 to 49 °C for the second.

First: CCc1nn2c(-c3cccnc3)ccnc2c1Cl
Second: O=C(c1ccccc1)c1ccc(-c2cnn3c(O)ncnc23)cc1
The melting point of the first is lower: 132 to 133 °C for the first, > 300 °C for the second.

First: CC(=O)Oc1ccc(C(=O)NNC(=O)c2occ(-c3ccccc3)c2-c2ccccc2)cc1C#N
Second: Cn1c2c(c3ccccc31)CC(OC(=O)c1ccccc1)CC2 (configuration not stated)
The melting point of the first is higher: 131 to 133 °C for the first, 93 to 96 °C for the second.

First: CCCc1c(OCC(O)CSc2ccc(CC(=O)OC)c(Cl)c2Cl)ccc(C(C)=O)c1O (configuration not stated)
Second: O=C(O)CCSC(SCCC(=O)O)c1cccc(CCc2ccc3ccc(Cl)cc3n2)c1
The melting point of the first is lower: 85 to 88 °C for the first, 160 to 161 °C for the second.

Compared with `CC1CCC(C(=O)Nc2ccccc2)=C2NC=C(C(=O)O)C(=O)N21` (configuration not stated), `CC(C#N)c1ccc(CCc2ccccc2C(=O)O)cc1` (configuration not stated) is lower in melting point: 200 to 201 °C for the first, 73 °C for the second.

First: CCN(C)c1nc2cc(NC(=O)c3c(C(=O)N4CCOCC4)cnn3C)ccn2n1
Second: CC(=O)CCCN1CC[C@H](CNC(=O)c2cc(Cl)c(N)c3c2OCC3)[C@H](O)C1 (relative stereo)
The melting point of the first is higher: 167 to 169 °C for the first, 118 °C for the second.

First: CC(C)S(=O)(=O)c1ccc2[nH]nc(Nc3nccs3)c2c1
Second: CS(=O)(=O)c1ncnn1CC(O)(Cc1ccccc1Cl)C1(Cl)CC1 (configuration not stated)
The melting point of the first is higher: 146 to 148 °C for the first, 125 to 128 °C for the second.

For `CCCC1=C(C#N)C(c2ccccc2[N+](=O)[O-])c2c[nH]nc2N1` (configuration not stated), the melting point was 216 °C.
